Source: ChEMBL document CHEMBL1131175, “Use of papain as a model for the structure-based design of cathepsin K inhibitors: crystal structures of two papain-inhibitor complexes demonstrate binding to S'-subsites” (J Med Chem, 1998)

Target: T1, Papain (Carica papaya, UniProt P00784)
T1 sequence (P00784 whole entry): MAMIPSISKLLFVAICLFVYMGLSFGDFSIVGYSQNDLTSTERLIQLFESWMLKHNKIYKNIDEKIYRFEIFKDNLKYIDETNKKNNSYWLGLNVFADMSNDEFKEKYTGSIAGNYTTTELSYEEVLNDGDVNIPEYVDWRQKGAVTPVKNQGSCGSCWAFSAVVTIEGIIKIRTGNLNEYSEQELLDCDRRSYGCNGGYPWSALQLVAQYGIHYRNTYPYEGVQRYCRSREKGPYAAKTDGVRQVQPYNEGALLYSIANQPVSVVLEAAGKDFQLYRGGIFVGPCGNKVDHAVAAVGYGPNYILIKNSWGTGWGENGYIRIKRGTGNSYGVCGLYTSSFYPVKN
Assay: Inhibitory activity measured against papain.
Conditions: read-out: Ki app

- Ki: 10 µM
SMILES: CC(C)C[C@H](NC(=O)OCc1ccccc1)C(=O)NCC(=O)CNC(=O)[C@H](CC(C)C)NC(=O)OCc1ccccc1
